The record followed here is patent US8168642B2, “Dihydropyrimidine compounds and their uses in preparation of medicaments for treating and preventing antiviral diseases” (Beijing Molecule Science and Technology Co., Ltd., priority 2006, dated 2012).

In one data set the test system is HBV DNA. The data set can be described thus: Antiviral activity: inhibition of HBV DNA in supernatant of HepG 2.2.15 cells (dot blot hybridization). Type of data set: cell-based. Conditions: Hepatitis B virus, HepG2.2.15, 192 h, 8 days incubation, HB-specific DNA in supernatant, read-out: IC50 (inhibitory effect on HBV DNA). Here is the method: The antiviral effect of the compound of the present invention is determined according to the methods described by Sells, et al (M. A. Sells, M. L. Chen, G. Proc. Natl. Acad. Sci. 1987, 84, 1005-1009) and Korba, et al (B. E. Korba, J. L. Gerin Antiviral Research 1992, 19, 55-70).
(§1) The antiviral test was carried out in a 96-cell microtiter plate. The first column of the plate only contained a culture medium and HepG 2.2.15 cells, as a blank control.
(§2) First, a stock solution ([…]) of a test compound was dissolved in DMSO, and further diluted with a culture medium for growth of HepG 2.2.15 cells. Usually, the compound of the present invention was transferred by suction at a test concentration of 100 μg/ml (the first test concentration) to each cell of the second column of the microtiter plate, and then diluted with the culture medium for growth plus 2% fetal bovine serum (25 μL), by 2 times once, up to 2^10 times at the maximum.
(§3) Then, 225 μL of a suspension of HepG 2.2.15 cells in the culture medium for growth plus 2% fetal bovine serum (5×10^4 cells/ml) was added to each cell of the 96-cell microtiter plate.
(§4) The test mixture was incubated under the conditions of 37° C., 5% CO2 for 4 days. Then, the supernatant was removed by suction, and to each cell 225 μL of a new-prepared culture medium for growth was added. Again, the compound of the present invention was added with a solution of 25 μL. The obtained mixture was further incubated for 4 days.
Thereafter, the supernatant was collected, and sucked in vacuum to a 96-cell dot blot chamber covered by nylon film (used in accordance with the instructions for use provided by the manufacturer).
Determination of Antiviral Activity
After the supernatant was transferred onto the nylon film of the dot blot device (see the contents hereinabove), the supernatant of HepG 2.2.15 cells was denaturated (1.5 M NaCl/0.5 M NaOH), neutralized (3 M NaCl/0.5 M Tris. HCl, pH 7.5) and washed (2×SSC). Then, the filter film was kept at 120° C. for 2-4 hours, whereby DNA was baked on the filter film.
Usually, viral DNA of HepG 2.2.15 cells treated on the nylon film was detected by using a non-radioactive digoxigenin labeled HB-specific DNA probe. Wherein, each time the probe was labeled with digoxigenin, purified and hybridized according to the directions for use given by the manufacturer.
Briefly, pre-hybridization and hybridization were conducted with 5×SSC, 1× blocking agent, 0.1% N-lauroyl sarcosine, 0.02% SDS and 100 μg sperm DNA of black carp. After pre-hybridization at 60° C. for 30 min, a specific hybridization (at 60° C. for 14 hr) was conducted with 20-40 ng/ml digoxigenin labeled denaturalized HBV specific DNA. Then, the film was washed, followed by HBV DNA detection with digoxigenin antibody.
The immunology detection of digoxigenin labeled DNA was conducted according to the directions for use given by the manufacturer.
Briefly speaking, the film was washed and pre-hybridized with a blocking agent (in accordance with the directions for use given by the manufacturer), and then hybridized with an anti-DIG antibody that had been previously coupled onto an alkaline phosphatase for 30 min. After washing, an alkaline phosphatase substrate CSPD was added, and cultured together with the filter for 5 min, and then wrapped in a plastic film, followed by further culturing at 37° C. for 15 min. The filter was exposed to X-ray, and the chemical luminous signal (culturing for 10 min to 2 hr according to the signal strength) of HB-specific DNA on the film was detected, whereby a half inhibitory concentration (IC50) was calculated.
The half inhibitory concentration (IC50) refers to the concentration of the compound of the present invention which reduces the HB-specific band by 50% as compared with the untreated sample.

A further data set has as its system HepG 2.2.15 cells. The data set can be described thus: Cytotoxicity in HepG 2.2.15 cells (cell morphology under microscope after 8 days, Reed&Muench). The format is cell-based. Particulars: pathological change of cells after 8 days. Here is the method: as §1, §2, §3, §4
Prior to collection of the supernatant for determination of the antiviral effect, the change in cytotoxicity of HepG 2.2.15 cells was investigated by using optical microscopic technique or biochemical detection method (e.g., Alamar Blue staining or Trypan Blue staining).
Determination of Cytotoxicity
The substance-induced change in cytotoxicity in HepG 2.2.15 cells or in inhibition of the cells could be determined by using, e.g., optical microscopic technique, and expressed by the change of cell morphology. Such substance-induced changes, e.g., cell lysis, cavity formation or change in cell morphology, in HepG 2.2.15 cells were apparent as compared to the untreated cells.
Taking the observed pathological change of cells as index, the pathological change of cells was observed under microscope after 8 days, a complete destroy being indicated as 4; 75% being indicated as 3; 50% being indicated as 2; 25% being indicated as 1; and no pathological change being indicated as 0. The average extents of pathological change of cells and the inhibition percentages at various concentrations were calculated. According to Reed&Muench method, a half toxic concentration (TC50) and a maximum non-toxic concentration (TC0) were calculated.
TC50 refers to the concentration of the compound of the present invention when 50% of cells have a similar morphology to the corresponding cells as a control.

Where only a bound is given, the exact number is not on record here.

For `CCOC(=O)C1=C(C)NC(c2cscn2)=NC1c1cccc(O)c1` (centres unmarked), the melting point (usually the temperature, or range, at which the solid turns liquid) was in the range of 180 to 183 °C.

Turning to `CCOC(=O)C1=C(C)NC(c2csc(C)n2)=NC1c1ccc(O)cc1` (centres unmarked), the melting point was 208 to 210 °C.

`CCOC(=O)C1=C(C)NC(c2cscn2)=NC1c1cccc(F)c1` (centres unmarked) yielded a melting point of 118 to 120 °C.

`CCOC(=O)C1=C(C)NC(c2nccn2Cc2ccccc2)=NC1c1ccc(F)cc1` (centres unmarked) [Example 51, ethyl 2-(N-benzyl-1H-imidazol-2-yl)-4-(4-fluorophenyl)-6-methyl-1,4-dihydro-pyrimidin-5-carboxylate] had a melting point of 162 to 164 °C. For the same compound, the IC50 (usually the midpoint of a concentration-inhibition curve) in the data set on HBV DNA amounted to 6.65 µM. In the data set with HepG 2.2.15 cells, this compound showed a TD50 of 36.87 µM.

Regarding `CCOC(=O)C1=C(C)NC(c2nccn2C)=NC1c1ccc(F)cc1Cl` (centres unmarked) [Example 49, ethyl 2-(N-methyl-1H-imidazol-2-yl)-4-(2-chloro-4-fluorophenyl)-6-methyl-1,4-dihydro-pyrimidin-5-carboxylate], the melting point lay within 166 to 167 °C. For the same compound, in the data set with HBV DNA, the IC50 turned out to be 0.27 µM. The TD50 with HepG 2.2.15 cells came to 38.83 µM.

`CCOC(=O)C1=C(C)NC(c2cscn2)=NC1c1cccc(C)c1` (centres unmarked) gave a melting point of 133 to 134 °C.

`COC(=O)C1=C(C)NC(c2c(F)cccc2F)=NC1c1ccc(F)cc1Cl` (centres unmarked) [Example 55, methyl 2-(2,6-difluorophenyl)-4-(2-chloro-4-fluorophenyl)-6-methyl-1,4-dihydro-pyrimidin-5-carboxylate] came in with a melting point of 126 to 128 °C. For the same compound, the IC50 with HBV DNA was found to be 4.01 µM. Besides, the TD50 in the data set on HepG 2.2.15 cells turned out to be 60.84 µM.

Compound `CCOC(=O)C1=C(C)NC(c2cscn2)=NC1c1cccc(OC)c1` (centres unmarked) returned a melting point of 140 to 142 °C.

Take `COC(=O)C1=C(C)NC(c2sc(C)nc2C)=NC1c1ccc(F)cc1Cl` (centres unmarked) [Example 39, methyl 2-(2,4-dimethylthiazol-5-yl)-4-(2-chloro-4-fluorophenyl)-6-methyl-1,4-dihydro-pyrimidin-5-carboxylate]: the melting point was in the range of 116 to 118 °C. Moreover, the IC50 in the data set with HBV DNA turned out to be 3.2 µM. In the data set on HepG 2.2.15 cells, this compound showed a TD50 of 165.90 µM.

Regarding `CCOC(=O)C1=C(C)NC(c2cscn2)=NC1c1cccc(Cl)c1` (centres unmarked), the melting point fell in the range of 105 to 108 °C.

`COC(=O)C1=C(C)NC(c2scnc2C)=NC1c1ccc(F)cc1Cl` (centres unmarked) [Example 37, methyl 2-(4-methylthiazol-5-yl)-4-(2-chloro-4-fluorophenyl)-6-methyl-1,4-dihydro-pyrimidin-5-carboxylate] had a melting point of 145 to 147 °C. Further, the IC50 in the data set on HBV DNA worked out at 14.6 µM. The same compound showed a TD50 in the data set with HepG 2.2.15 cells of 101.42 µM.

On to `CCOC(=O)C1=C(C)NC(c2csc(C)n2)=NC1c1cccc(O)c1` (centres unmarked), for which the melting point fell in the range of 175 to 178 °C.

`CCOC(=O)C1=C(C)NC(c2nccn2Cc2ccccc2)=NC1c1ccc(F)cc1Cl` (centres unmarked) had a melting point of 114 to 117 °C.

On to `COC(=O)C1=C(C)NC(c2ncsc2Cl)=NC1c1ccc(F)cc1` (centres unmarked), for which the melting point was in the range of 118 to 122 °C.

Regarding `CCOC(=O)C1=C(C)NC(c2ncc[nH]2)=NC1c1ccc(F)cc1Cl` (centres unmarked), the melting point lay in the range of 157 to 162 °C.

`COC(=O)C1=C(C)NC(c2cnc(Cl)s2)=NC1c1ccc(F)cc1` (centres unmarked) yielded a melting point of 175 to 178 °C.

Consider `CCOC(=O)C1=C(C)NC(c2cnc(C)s2)=NC1c1ccc(F)cc1Cl` (centres unmarked), for which the melting point was 107 to 111 °C.

Compound `CCOC(=O)C1=C(C)NC(c2cscn2)=NC1c1ccc(O)cc1` (centres unmarked) gave a melting point of 213 to 216 °C.

The compound `CCOC(=O)C1=C(C)NC(c2csc(C)n2)=NC1c1cccc(Cl)c1` (centres unmarked) displayed a melting point of 143 to 144 °C.

In the case of `CCOC(=O)C1=C(C)N(C(C)=O)C(c2csc(C)n2)=NC1c1ccc(Cl)cc1` (centres unmarked), the melting point lay within 169 to 171 °C.

In the case of `CCOC(=O)C1=C(C)N(C(C)=O)C(c2csc(C)n2)=NC1c1cccc(C)c1` (centres unmarked), the melting point fell in the range of 113 to 114 °C.

The compound `CCOC(=O)C1=C(C)NC(c2nccn2C)=NC1c1ccccc1Cl` (centres unmarked) returned a melting point of 124 to 127 °C.

Turning to `CCOC(=O)C1=C(C)N(C(C)=O)C(c2csc(C)n2)=NC1c1cccc(OC)c1` (centres unmarked), the melting point lay in the range of 114 to 116 °C.

Regarding `CCOC(=O)C1=C(C)NC(c2cnc(Cl)s2)=NC1c1ccc(F)cc1Cl` (centres unmarked), the melting point fell in the range of 159 to 162 °C.

Regarding `CCOC(=O)C1=C(C)N(C(C)=O)C(c2csc(C)n2)=NC1c1ccc(OC)cc1` (centres unmarked), the melting point lay within 138 to 140 °C.

Turning to `COC(=O)C1=C(C)NC(c2ncsc2Cl)=NC1c1ccc(F)cc1Cl` (centres unmarked), the melting point is 98 to 100 °C.

In the case of `COC(=O)C1=C(C)NC(c2cnc(Cl)s2)=NC1c1ccc(F)cc1Cl` (centres unmarked), the melting point was greater than 230 °C.

The compound `CCOC(=O)C1=C(C)NC(c2ncc[nH]2)=NC1c1ccccc1Cl` (centres unmarked) yielded a melting point of 121 to 125 °C.

As to `CCOC(=O)C1=C(C)NC(c2ncsc2Cl)=NC1c1ccc(F)cc1Cl` (centres unmarked), the melting point is 149 to 152 °C.

The compound `CCOC(=O)C1=C(C)N(C(C)=O)C(c2csc(C)n2)=NC1c1cccc(F)c1` (centres unmarked) had a melting point of 127 to 130 °C.

`CCOC(=O)C1=C(C)N(C(C)=O)C(c2csc(C)n2)=NC1c1ccc(C)cc1` (centres unmarked) returned a melting point of 187 to 188 °C.

Turning to `CCOC(=O)C1=C(C)N(C(C)=O)C(c2cscn2)=NC1c1cccc(OC)c1` (centres unmarked), the melting point is 130 to 131 °C.

Regarding `CCOC(=O)C1=C(C)NC(c2cscn2)=NC1c1ccc(F)cc1` (centres unmarked), the melting point lay within 118 to 120 °C.

On to `CCOC(=O)C1=C(C)NC(c2csc(C)n2)=NC1c1ccc(F)cc1Cl` (centres unmarked), for which the melting point lay in the range of 123 to 125 °C.

On to `CCOC(=O)C1=C(C)N(C(C)=O)C(c2csc(C)n2)=NC1c1ccccc1` (centres unmarked), for which the melting point is 140 to 142 °C.

`CC1=C(C(=O)OC(C)C)C(c2ccc(F)cc2Cl)N=C(c2c(F)cccc2F)N1` (centres unmarked): the melting point lay within 155 to 158 °C.

As for `CCOC(=O)C1=C(C)NC(c2cscn2)=NC1c1ccccc1F` (centres unmarked), the melting point fell in the range of 126 to 128 °C.

For `COC(=O)C1=C(C)NC(c2csc(C)n2)=NC1c1ccc(F)cc1Cl` (centres unmarked) [Example 29, methyl 2-(2-methylthiazol-4-yl)-4-(2-chloro-4-fluorophenyl)-6-methyl-1,4-dihydro-pyrimidin-5-carboxylate], the IC50 in the data set with HBV DNA stood at 8.42 µM. This compound had a TD50 in the data set with HepG 2.2.15 cells of 56.34 µM.

Compound `CCOC(=O)C1=C(C)N(C(C)=O)C(c2csc(C)n2)=NC1c1ccc(F)cc1` (centres unmarked) showed a melting point of 140 to 142 °C.

Regarding `CCOC(=O)C1=C(C)NC(c2csc(N)n2)=NC1c1ccc(F)cc1Cl` (centres unmarked), the melting point lay within 95 to 110 °C.

Regarding `CCOC(=O)C1=C(C)NC(c2c(F)cc(F)cc2F)=N[C@H]1c1ccc(F)cc1Cl` [Example 62, ethyl 4-R-(2-chloro-4-fluorophenyl)-2-(2,4,6-trifluorophenyl)-6-methyl-1,4-dihydro-pyrimidin-5-carboxylate], in the data set with HBV DNA, the IC50 is 2.01 µM. In the data set with HepG 2.2.15 cells, this compound displayed a TD50 of 117.23 µM.
